According to patent publication US8809232B2, “Herbicidal compositions comprising 4-amino-3-chloro-5-fluoro-6-(4-chloro-2-fluoro-3-methoxyphenyl) pyridine-2-carboxylic acid or a derivative thereof and halosulfuron, pyrazosulfuron and esprocarb” (Dow Agrosciences LLC, priority 2012, dated 2014):
Where “and” joins values, the source holds several entries; their conditions need not be identical. Equal entries are not always repeated.

How the values were obtained:
[1] = test system: ECHOR; assay: In-water applied herbicidal mixtures, greenhouse, transplanted paddy rice weeds; type: in vivo, Echinochloa oryzoides (Ard.) Fritsch
Protocol: (§1) Weed seeds or nutlets of the desired test plant species were planted in puddled soil (mud) prepared by mixing a shredded, non-sterilized mineral soil (50.5 percent silt, 25.5 percent clay, and 24 percent sand, with a pH of about 7.6 and an organic matter content of about 2.9 percent) and water at a 1:1 volumetric ratio. The prepared mud was dispensed in 365 mL aliquots into 16-ounce (oz.) non-perforated plastic pots with a surface area of 86.59 square centimeters (cm^2) leaving a headspace of 3 centimeters (cm) in each pot Mud was allowed to dry overnight prior to planting or transplanting. Rice seeds were planted in Sun Gro MetroMix® 306 planting mixture, which typically has a pH of 6.0 to 6.8 and an organic matter content of about 30 percent, in plastic plug trays. Seedlings at the second or third leaf stage of growth were transplanted into 840 mL of mud contained in 32-oz. non-perforated plastic pots with a surface area of 86.59 cm^2 4 days prior to herbicide application. The paddy was created by filling the headspace of the pots with 2.5 to 3 cm of water. When required to ensure good germination and healthy plants, a fungicide treatment and/or other chemical or physical treatment was applied. The plants were grown for 4-22 days in a greenhouse with an approximate 14 hr photoperiod which was maintained at about 29′C during the day and 26° C. during the night. Nutrients were added as Osmocote® (19:6:12, N:P:K^+ minor nutrients) at 2 g per 16-oz. pot and 4 g per 32-oz. pot. Water was added on a regular basis to maintain the paddy flood, and supplemental lighting was provided with overhead metal halide 1000-Watt lamps as necessary. The plants were employed for testing when they reached the first through fourth true leaf stage.
(§2) Treatments consisted of the acid or esters of 4-amino-3-chloro-5-fluoro-6-(4-chloro-2-fluoro-3-methoxy-phenyl)pyridine-2-carboxylic acid (compound A) each formulated as an SC (suspension concentrate) and various herbicidal components alone and in combination. Forms of compound A were applied on an acid equivalent basis.
(§3) Other herbicidal components were applied on an active ingredient basis and included acetolactate synthase (ALS)-inhibiting herbicides formulated as Permit® 75 WDG, pyrazosulfuron-ethyl formulated as Agreen® WG or Sirius® G, and VLCFA inhibiting herbicide esprocarb (technical grade material).
(§4) Treatment requirements for each compound or herbicidal component were calculated based upon the rates being tested, the concentration of active ingredient or acid equivalent in the formulation, an application volume of 2 mL per component per pot, and an application area of 86.59 cm^2 per pot.
(§5) For formulated compounds, a measured amount was placed in an individual 100 or 200 mL glass vial and was dissolved in a volume of 1.25% (v/v) Agri-Dex® crop oil concentrate to obtain application solutions.
(§6) For technical grade compounds, a weighed amount was placed in an individual 100 to 200 mL glass vial and was dissolved in a volume of acetone to obtain concentrated stock solutions. […] The concentrated stock solutions obtained were diluted with an equivalent volume of an aqueous mixture containing 2.5% (v/v) crop oil concentrate so that the final application solutions contained 1.25% (v/v) crop oil concentrate.
(§7) Applications were made by injecting with a pipetter appropriate amounts of the application solutions, individually and sequentially, into the aqueous layer of the paddy. Control plants were treated in the same manner with the solvent blank. Applications were made so that all treated plant material received the same concentrations of acetone and crop oil concentrate.
(§8) The treated plants and control plants were placed in a greenhouse as described above and water was added as needed to maintain a paddy flood. […]

[2] = test system: BRAPP; assay: Post-emergence foliar-applied herbicidal mixtures, greenhouse, direct seeded rice weeds; type: in vivo
Text: (§9) Seeds or nutlets of the desired test plant species were planted in a soil matrix prepared by mixing a loam or sandy loam soil (e.g., 28.6 percent silt, 18.8 percent clay, and 52.6 percent sand, with a pH of about 5.8 and an organic matter content of about 1.8 percent) and calcareous grit in an 80 to 20 ratio. The soil matrix was contained in plastic pots with a volume of 1 quart and a surface area of 83.6 square centimeters (cm^2). When required to ensure good germination and healthy plants, a fungicide treatment and/or other chemical or physical treatment was applied. The plants were grown for 8-22 days in a greenhouse with an approximate 14 hr photoperiod which was maintained at about 29° C. during the day and 26° C. during the night. Nutrients (Peters Excel® 15-5-15 5-Ca 2-Mg and iron chelate) were applied in the irrigation solution as needed and water was added on a regular basis. Supplemental lighting was provided with overhead metal halide 1000-Watt lamps as necessary. The plants were employed for testing when they reached the first through fourth true leaf stage.
as §2, with “(Compound A),” for “(compound A)”, “concentrate),” for “concentrate)”
(§10) Other herbicidal components were applied on an active ingredient basis and included the acetolactate synthase (ALS)-inhibiting herbicides halosulfuron-methyl formulated as Permit® 75 WDG, pyrazosulfuron-ethyl formulated as Agreen® WG or Sirius® G, and the VLCFA inhibiting herbicide esprocarb (technical grade material).
(§11) Treatment requirements were calculated based upon the rates being tested, the concentration of active ingredient or acid equivalent in the formulation, and a 12 mL application volume at a rate of 187 L/ha.
(§12) For treatments comprised of formulated compounds, measured amounts of compounds were placed individually in 25 mL glass vials and diluted in a volume of 1.25% (v/v) Agri-Dex® crop oil concentrated to obtain 12× stock solutions. […] Application solutions were prepared by adding an appropriate amount of each stock solution (e.g., 1 mL) and diluted to the appropriate final concentrations with the addition of 10 mL of an aqueous mixture of 1.25% (v/v) crop oil concentrate so that the final spray solutions contained 1.25+/−0.05% (v/v) crop oil concentrate.
(§13) For treatments comprised of technical compounds, weighed amounts can be placed individually in 25 mL glass vials and dissolved in a volume of 97:3 v/v acetone/DMSO to obtain 12× stock solutions. […] Application solutions can be prepared by adding an appropriate amount of each stock solution (e.g., 1 mL) and diluted to the appropriate final concentrations with the addition of 10 mL of an aqueous mixture of 1.5% (v/v) crop oil concentrate so that the final spray solutions contain 1.25% (v/v) crop oil concentrate. When technical materials are used, the concentrated stock solutions can be added to the spray solutions so that the final acetone and DMSO concentrations of the application solutions are 16.2% and 0.5%, respectively.
(§14) For treatments comprised of formulated and technical compounds, weighed amounts of the technical materials were placed individually in 25 mL glass vials and dissolved in a volume of 97:3 v/v acetone/DMSO to obtain 12× stock solutions, and measured amounts of the formulated compounds were placed individually in 25 mL glass vials and diluted in a volume of 1.5% (v/v) crop oil concentrate or water to obtain 12× stock solutions. […] Application solutions were prepared by adding an appropriate amount of each stock solution (e.g., 1 mL) and diluted to the appropriate final concentrations with the addition of an appropriate amount of an aqueous mixture of 1.5% (v/v) crop oil concentrate so that the final spray solutions contained 1.25% (v/v) crop oil concentrate. […]

[3] = test system: SCPMA; assay: In-water applied herbicidal mixtures, greenhouse, transplanted paddy rice weeds; type: in vivo
Protocol: as §1, §2, §3, §4, §5, §6, §7, §8

[4] = test system: DIGSA; assay: Post-emergence foliar-applied herbicidal mixtures, greenhouse, direct seeded rice weeds; type: in vivo, Digitaria sanguinalis (L.) Scop.
Text: as §9
as §2, with “(Compound A),” for “(compound A)”, “concentrate),” for “concentrate)”
as §10, §11, §12, §13, §14

[5] = test system: LEFCH; assay: In-water applied herbicidal mixtures, greenhouse, transplanted paddy rice weeds; type: in vivo, Leptochloa chinensis (L.) Nees; conditions: 4.38 g ae/ha
Protocol: as §1, with “Water was added on a regular basis to maintain the paddy flood, and supplemental lighting was provided with overhead metal halide 1000-Watt lamps as necessary. The plants were employed for testing when they reached the first through fourth true leaf stage.” left out
as §4
For formulated compounds, a measured amount was placed in an individual 100 or 200 mL glass vial and was dissolved in a volume of 1.25% (v/v) Agri-Dex® crop oil concentrate to obtain application solutions. […]

[6] = test system: CYPRO; assay: as above; type: in vivo, Cyperus rotundus L.
Protocol: as §1, §2, §3, §4, §5, §6, §7, §8

[7] = test system: CYPIR; assay: Post-emergence foliar-applied herbicidal mixtures, greenhouse, direct seeded rice weeds; type: in vivo, Cyperus iria L.
Text: as §9
as §2, with “(Compound A),” for “(compound A)”, “concentrate),” for “concentrate)”
as §10, §11
(§15) For treatments comprised of formulated compounds, measured amounts of compounds were placed individually in 25 mL glass vials and diluted in a volume of 1.25% (v/v) Agri-Dex® crop oil concentrated to obtain 12× stock solutions. […]
(§16) For treatments comprised of formulated and technical compounds, weighed amounts of the technical materials were placed individually in 25 mL glass vials and dissolved in a volume of 97:3 v/v acetone/DMSO to obtain 12× stock solutions, and measured amounts of the formulated compounds were placed individually in 25 mL glass vials and diluted in a volume of 1.5% (v/v) crop oil concentrate or water to obtain 12× stock solutions. […]

[8] = test system: FIMMI; assay: In-water applied herbicidal mixtures, greenhouse, transplanted paddy rice weeds; type: in vivo, Fimbristylis miliacea (L.) Vahl; conditions: 4.38 g ae/ha
Protocol: as §1, §2, §3, §4, §5, §6
Applications were made by injecting with a pipetter appropriate amounts of the application solutions, individually and sequentially, into the aqueous layer of the paddy. […]

[9] = test system: SCPJU; assay: Post-emergence foliar-applied herbicidal mixtures, greenhouse, direct seeded rice weeds; type: in vivo, Schoenoplectus juncoides (Roxb.) Palla; conditions: 8.75 g ae/ha
Text: as §9, with “stage. […]” for “stage.”
as §11, §15, §16

[10] = test system: LEFCH; assay: as above; type: in vivo, Leptochloa chinensis (L.) Nees
Text: as §9
as §2, with “(Compound A),” for “(compound A)”, “concentrate),” for “concentrate)”
as §10, §11, §12, §13, §14

COc1c(Cl)ccc(-c2nc(C(=O)OCc3ccccc3)c(Cl)c(N)c2F)c1F [Compound A Benzyl Ester]
Visual Weed Control (%) - 21 DAA ECHOR Obs ([1]; 4.38 g ae/ha): 0% | Visual Weed Control (%) - 21 DAA ECHOR Obs ([1]; 8.75 g ae/ha): 10% | Visual Weed Control (%) - 20 DAA ECHOR Obs ([1]; 35 g ae/ha): 73% | Visual Weed Control (%) - 20 DAA BRAPP Obs ([2]; 4.38 g ae/ha): 40% | Visual Weed Control (%) - 21 DAA BRAPP Obs ([2]; 4.38 g ae/ha): 50% | Visual Weed Control (%) - 20 DAA BRAPP Obs ([2]; 8.75 g ae/ha): 70% | Visual Weed Control (%) - 22 DAA SCPMA Obs ([3]; 4.38 g ae/ha): 0% | Visual Weed Control (%) - 22 DAA SCPMA Obs ([3]; 8.75 g ae/ha): 0% | Visual Weed Control (%) - 22 DAA SCPMA Obs ([3]; 17.5 g ae/ha): 0% | Visual Weed Control (%) - 20 DAA SCPMA Obs ([3]; 70 g ae/ha): 0% | Visual Weed Control (%) - 21 DAA DIGSA Obs ([4]; 17.5 g ae/ha): 23% | Visual Weed Control (%) - 21 DAA DIGSA Obs ([4]; 35 g ae/ha): 38% | Visual Weed Control (%) - 22 DAA LEFCH Obs [5]: 0% | Visual Weed Control (%) - 21 DAA CYPRO Obs ([6]; 4.38 g ae/ha): 20% and 30% | Visual Weed Control (%) - 21 DAA CYPRO Obs ([6]; 8.75 g ae/ha): 65% and 60% | Visual Weed Control (%) - 22 DAA CYPIR Obs ([7]; 4.38 g ae/ha): 25% | Visual Weed Control (%) - 22 DAA CYPIR Obs ([7]; 8.75 g ae/ha): 50% | Visual Weed Control (%) - 21 DAA FIMMI Obs [8]: 20% | Visual Weed Control (%) - 22 DAA SCPJU Obs [9]: 80% | Visual Weed Control (%) - 20 DAA LEFCH Obs ([10]; 4.38 g ae/ha): 0% | Visual Weed Control (%) - 20 DAA LEFCH Obs ([10]; 8.75 g ae/ha): 20% | Visual Weed Control (%) - 20 DAA LEFCH Obs ([10]; 17.5 g ae/ha): 40%
